# Results published in PMC7349657, “Efficient Targeted Degradation via Reversible and Irreversible Covalent PROTACs” (Journal of the American Chemical Society, 2020).
# How the values were obtained:
# BTK [1] = target: T1, BTK (Homo sapiens, UniProt Q06187); experiment: BTK degradation in patient-derived primary CLL cells (Western blot); type: cell-based; parameters: endogenous in cells; settings: 18 h
# Method: To assess the PROTACs’ efficiency in a clinically relevant model, we tested their ability to induce BTK degradation in primary cells from chronic lymphocytic leukemia (CLL) patients.
# Figure 4 Degradation of BTK in patient-derived CLL cells. Patient-derived primary CLL cells were treated with BTK PROTACs for 18 h, followed by measuring BTK levels via Western blot. M-IGHV/UM-IGHV: mutated/unmutated immunoglobulin heavy chain variable region (IGHV) gene.
# The LC–MS/MS instrument consi sted of an Acquit y I-class UPLC system (Waters) and Xevo TQ-XS triple quadrupole mass spectrometer (Waters) equipped with an electrospray ion source. Chromatographic separation was done on UPLC BEH C18 column (50mm × 2.1mm, 1.7-µm, Waters) using 50-100% gradient of 95%-aqueous acetonitrile with 0.1% formic acid in aqueous 0.1% formic acid during 2.5 minut e s, with a flow rate of 0. 3 mL min−1 and column temperature 30°C. Samples kept at 10°C were automatically injected in a volume of 3µl.
# MS parameters (positive ion mode): capillary voltage - 2. 0kV, source temperature - […]
# Targeting BTK in CLL cells […]
# Following incubation with PROTACs as detailed, cells were collected and lysed in cell lysis buffer (Cell Signaling Technology, Beverly, MA) containing Phosphatase Inhibitor Cocktail 2 and protease inhibitor Cocktail (Sigma-Aldrich, St. Louis, MO). […] Bands were detected using MyECL Imager (Thermo Scientific, […]
# BTK [2] = target: T1, BTK; experiment: Mechanism validation: pretreatment with ibrutinib, thalidomide-OH or bortezomib before PROTAC in Mino cells; type: cell-based; parameters: endogenous in cells; host or cells: Mino (ATCC CRL-3000), Ramos (ATCC CRL-1596), K562 (NCI-60); settings: 2 h pretreatment, then PROTAC 24 h
# T1 sequence (Q06187 whole entry): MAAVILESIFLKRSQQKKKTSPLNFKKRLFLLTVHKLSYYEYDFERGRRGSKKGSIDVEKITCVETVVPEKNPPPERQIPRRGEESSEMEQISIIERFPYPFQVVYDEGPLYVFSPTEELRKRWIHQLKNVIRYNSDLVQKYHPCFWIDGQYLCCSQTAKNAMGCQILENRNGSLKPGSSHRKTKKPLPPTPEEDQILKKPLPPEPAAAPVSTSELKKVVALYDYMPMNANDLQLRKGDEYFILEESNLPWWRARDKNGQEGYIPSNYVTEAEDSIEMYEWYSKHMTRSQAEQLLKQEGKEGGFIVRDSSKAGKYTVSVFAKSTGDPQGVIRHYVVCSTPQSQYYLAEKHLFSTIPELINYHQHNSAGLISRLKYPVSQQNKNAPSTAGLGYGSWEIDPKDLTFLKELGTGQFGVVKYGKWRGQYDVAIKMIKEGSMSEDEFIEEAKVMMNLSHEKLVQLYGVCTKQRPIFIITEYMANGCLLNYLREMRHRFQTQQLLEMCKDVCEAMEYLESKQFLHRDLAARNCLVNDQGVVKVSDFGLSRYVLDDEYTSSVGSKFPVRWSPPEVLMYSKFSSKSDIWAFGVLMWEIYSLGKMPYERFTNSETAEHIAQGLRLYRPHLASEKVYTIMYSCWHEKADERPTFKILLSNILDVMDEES
BTK degradation after thalidomide-OH pretreatment (BTK [2]),Structure (SMILES),BTK degradation level (BTK [1])
only slightly hindered by thalidomide,Nc1ncnc2c1c(-c1ccc(Oc3ccccc3)cc1)nn2C1CCCN(C(=O)CCCCCCOCCOCCOCCOCCOc2cccc3c2C(=O)N(C2CCC(=O)NC2=O)C3=O)C1 (stereo not drawn) [NC-1],higher degradation levels than RC-2 and RC-3
–,Nc1ncnc2c1c(-c1ccc(Oc3ccccc3)cc1)nn2C1CCCN(C(=O)C=CCCCCOCCOCCOCCOCCOc2cccc3c2C(=O)N(C2CCC(=O)NC2=O)C3=O)C1 (stereo not drawn) [IR-2],higher degradation levels than RC-2 and RC-3
